Reference: US20230018989A1, “INHIBITING THE RNA […] METTL3 OR ITS INTERACTION WITH EIF3H TO […] ONCOGENE TRANSLATION AND TUMORIGENESIS” (Children's Medical Center Corporation, priority 2019, published 2023)

Key:
[1] = target: eIF3h (endogenous, in cells) (human) (UniProt O15372); assay: cell-based or functional assay
A549 cells [2] = assay: Annexin V/PI apoptosis assay (FACS) upon JQ1 treatment; type: cell-based, human; conditions: 500 nM JQ1, five days; METTL3 depleted A549 cells compared with control A549 cells
Method: (§1) FIGS. 7A-7N. METTL3 promotes translation of a large subset of mRNAs. (FIGS. 7A-7E) Global profiling of METTL3 target genes in HeLa. Cytoplasmic extracts from control or METTL3 depleted cells were subjected to sucrose gradient centrifugation. Total RNA, RNA from sub-polysome fractions and RNA from polysome fractions were analyzed by RNA-seq. (FIG. 7A) Peak analysis of polysome profiling. (FIG. 7B) Scatter plot of RNA-Seq data in METTL3 knockdown (shMETTL3) and control (shGFP) HeLa cells. Average read number from two individual METTL3 knockdown is plotted on the y-axis. (FIG. 7C) Scatter plot of RNA-Seq data in shMETTL3 and shGFP HeLa cells. Average read number from two shMETTL3 samples were calculated by the ratio of polysome fraction to the read number in the sub-polysome fraction and plotted on the y-axis. (FIG. 7D) Venn diagram showing the overlap of 2-fold less translated genes and METTL3 PAR-CLIP data. […] (FIG. 7N) Quantification of apoptotic cells, numbers represent ratio between death cells in JQ1 and DMSO treatments. […]
FIGS. 9A-9E. […] (FIG. 9B) Density plot reflects the distribution of changes in percent spliced In (APSI) values and according p-values for alternative splicing events detected by rMATs v3.2.5. […] (FIG. 9E) Annexin V/PI staining of METTL3 knockdown and control A549 cells upon JQ1 treatment that was analyzed by FACS. […]

A549 cells [3] = assay: MTS cell proliferation assay upon JQ1 treatment; type: cell-based, human; conditions: 500 nM JQ1; METTL3 depleted A549 cells compared with control A549 cells
Method: as §1, with “y-axis.” for “y-axis. (FIG. 7D) Venn diagram showing the overlap of 2-fold less translated genes and METTL3 PAR-CLIP data.”
Cell proliferation and apoptosis assays were performed as described previously^8. […] Absorbances at 490 nm were measured using CellTiter 96 AQueous One Solution Cell Proliferation Assay kit (Promega) on day 2, day 4, and day 6 to measure the cellular proliferation. The numbers of apoptotic cells were quantified by flow cytometric assays using Annexin V-FITC Apoptosis Detection Kit (BioVision) five days after 500 nM of JQ1 treatment and cell seeding.

Sequence of UniProt O15372 (O15372 whole entry): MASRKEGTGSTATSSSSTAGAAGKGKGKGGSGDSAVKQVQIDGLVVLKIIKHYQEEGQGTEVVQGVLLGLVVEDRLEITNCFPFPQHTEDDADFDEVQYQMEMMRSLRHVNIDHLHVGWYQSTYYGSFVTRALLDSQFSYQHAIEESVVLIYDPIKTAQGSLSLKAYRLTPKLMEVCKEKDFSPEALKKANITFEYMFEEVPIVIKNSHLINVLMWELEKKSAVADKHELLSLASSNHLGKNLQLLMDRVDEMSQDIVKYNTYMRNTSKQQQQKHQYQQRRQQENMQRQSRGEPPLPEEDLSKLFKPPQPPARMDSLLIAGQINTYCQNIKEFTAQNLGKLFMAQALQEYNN

“FLAG-MS2-METTL3 (from UniProt Q86U44 1-580)” showed a translation efficiency of reporter mRNA (tethering assay, FLuc-MS2bs, with control siRNA or eIF3h knockdown) [1] of 2 fold.

For `Cc1sc2c(c1C)C(c1ccc(Cl)cc1)=N[C@@H](CC(=O)OC(C)(C)C)c1nnc(C)n1-2` [JQ1], the “number of apoptotic cells, JQ1 versus DMSO” value (A549 cells [2]) was “increased the number of apoptotic cells” and the “cellular proliferation (OD490), JQ1 versus DMSO” value (A549 cells [3]) was “stronger proliferation defect”.
